The values below come from patent publication US20050032844A1, “Methods for regulating nicotine metabolism” (Nicogen, Inc., priority 1996, published 2005).

Where “and” joins values, the source holds several entries; their conditions need not be identical. Identical values can stand only once. Entries after “also recorded” stand apart in the source; their conditions may differ. Counter-ions that a name gives are not always drawn. Like-named read-outs stand apart in the source and are kept apart here.

For data set [1], the target named is T1, CYP2A6 (Homo sapiens, UniProt P11509).
T1 sequence (P11509 1-494): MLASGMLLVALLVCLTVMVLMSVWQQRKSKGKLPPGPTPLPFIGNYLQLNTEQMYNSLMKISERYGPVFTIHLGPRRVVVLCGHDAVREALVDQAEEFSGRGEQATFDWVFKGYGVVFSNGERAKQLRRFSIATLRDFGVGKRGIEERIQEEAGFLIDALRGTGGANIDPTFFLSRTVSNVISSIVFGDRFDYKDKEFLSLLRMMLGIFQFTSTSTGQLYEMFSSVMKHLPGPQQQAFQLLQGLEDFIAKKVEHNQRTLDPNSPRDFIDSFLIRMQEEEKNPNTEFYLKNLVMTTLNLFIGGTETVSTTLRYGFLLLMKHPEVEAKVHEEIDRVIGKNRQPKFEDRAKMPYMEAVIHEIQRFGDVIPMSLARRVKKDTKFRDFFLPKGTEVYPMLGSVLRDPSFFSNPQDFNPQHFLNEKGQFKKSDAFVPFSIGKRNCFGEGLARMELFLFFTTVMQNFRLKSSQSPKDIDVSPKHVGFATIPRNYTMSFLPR
Briefly: biochemical. As for the experimental part:
Coumarin, 7-methylcoumarin, 7-methoxycoumarin and 7-ethoxycoumarin, at 10 and 100 μM concentrations, were incubated with 50 μM nicotine in K27 human liver microsomes. Furthermore, nicotine at 10, 30 and 50 μM concentrations was incubated using K27 liver microsomes in the presence of 0, 1, 2 and 5 μM concentrations of coumarin.
Microsomes were removed from −70° C. freezer and thawed on ice. […] The reaction was stopped by adding 100 μl to 20% Na2CO3 (pH 11.4).

The subject of data set [2] is nicotine to cotinine metabolism by human liver microsomes. The experiment in a line: Chemical inhibition studies of nicotine to cotinine metabolism in 30 human liver microsomes and K27 microsomes. Format: biochemical. Conditions: for mean inhibition of cotinine formation (mean±SD): 150 μM inhibitor (each), 100 μM (S)-nicotine, 30 human liver microsomes; for rank order of potency in inhibiting cotinine formation: 10 and 100 μM inhibitor, 50 μM nicotine, K27 liver microsomes. How it is done:
Chemical inhibition studies. […] To maximize inhibition, and reduce the loss due to its own metabolism, a concentration of 150 μM was chosen for each specific inhibitor. […] This concentration was chosen to maximize the contributions of each cytochrome P450 involved in nicotine metabolism, since each enzyme would likely have varying affinities for nicotine. […] High and low concentrations ([…]) of coumarin, 7methylcoumarin, 7-methoxycoumarin, and 7-ethoxycoumarin were incubated with 50 μM nicotine in K27 human liver microsomes.
In general terms: Liver microsomes are a subcellular fraction often used to study metabolism.

Data set [3] addresses T2, CYP2D6 (Homo sapiens, UniProt P10635). The experiment in a line: in vitro. Conditions: pH 7.4.
Data set [4] deals with CYP2A6. The experiment in a line: Antisense knockdown of CYP2A6 protein in h2A6 lymphoblast cells (Western blot). In kind it is cell-based, human. As for the experimental part: (§1) In order to test the feasiblility of using antisense oligodeoxynucleotides (ASO) for the reduction of the CYP2A6 enzyme we designed 4 ASO to four different parts of the human CYP2A6 gene and mRNA sequence. The ability to decrease CYP2A6 protein was tested in 2 different human cell lines. The first was a human lymphoblast cell line (h2A6) with a plasmid expression system containing the human CYP2A6 cDNA which is commercially available from Gentest Corp (Woburn, Mass.) and the second was a human hepatic cell line which expresses CYP2A6 (HepG2).
The h2A6 P450 cells were grown to 3×10^6 cells, the media removed and 5 μg ASO and 20 μg/ml lipofectin was added in 1 ml of 5% horse serum supplemented media. The cells were grown for 24 hr when a further 4 mls of complete media (10% horse serum) was added and the cells were grown for an additional 48 hr. Each cell sample was then washed 3 times with phosphate buffered saline, pelleted and frozen. […] These studies were then repeated using the addition of missense oligodeoxynucleotides (MSO) controls for this sequence. The MSO controls have 2 nucleotides switched at the 5 and 3 prime end.
For orientation: In western blotting, separated proteins are transferred to a membrane and probed.

Data set [5] relates to CYP2A6. Briefly: Antisense knockdown of CYP2A6 protein in HepG2 cells. In kind it is cell-based, human. The note with it: 2 μg ASO, relative to control untreated and MSO#23 treated cells. How it is done:
as §1
The human hepatic HepG2 cells, which express CYP2A6, were grown and aliquoted at 1.0×10^5 cells and grown for 48 hrs in 2 mls complete media (10% fetal calf serum). After 48 hr, 2 μg ASO oligos and 15 μg/ml lipofectin was added in 1 ml 5% FCS media and grown for 24 hr. Cells then trypsinized and washed for Western blots or fixed with 4% paraformaldehyde for Immunocytochemistry.

For data set [6] the following is noted: in humans; cited from earlier work.
The target of data set [7] is T1, CYP2A6. Briefly: Clinical study of methoxsalen pre-treatment before subcutaneous nicotine in dependent smokers. In kind it is in vivo. On the set-up: 200 μl human liver microsomes (0.5 mg/ml); from tissue; host or cells: human liver microsomes (donor livers K12, K26, K27, K28). As for the experimental part:
Frequent blood samples were drawn over 6 hours for measurement of nicotine and cotinine concentrations in plasma and measures of nicotine effects (e.g., heart rate; blood pressure; symptoms and urges and desires to smoke).
Each subject abstained from tobacco, food, beverages (other than water), and any inconsistently used drugs from midnight before each study day but continued to take any regularly scheduled drugs allowed by the protocol (e.g., oral contraceptives, daily vitamins). Before baseline measures were taken, a breath CO sample (Ecolyzer) was taken to assess compliance with the smoking abstinence (<10 ppm expected). The subsequent daily schedule is summarized here. All measurements are with respect to a time zero at 8 AM, at which time the first of three hourly nicotine injections were given. Nicotine was injected at 0, +1, and +2 hours.
Baseline physiologic and subjective measures were taken at −30 minutes, +30 minutes, and hourly thereafter until +5.5 hours, approximately coinciding with the expected peak plasma nicotine concentrations after each injection. Blood samples were taken at least hourly, more often around the expected peaks after the first and third injections, as described below.
Sterile nicotine bitartrate was obtained from Sigma Chemical. […] Nicotine injections of 31 μg/kg (expressed as the base) in sterile saline were used. […] The solutions were passed through a viral filter to remove any remote risk of viral or bacterial contamination.
Using an indwelling venous catheter, 8 ml blood samples were drawn every hour from +0 to +6 hours, and additional blood samples were taken at 15, 25, and 40 minutes after the first and third nicotine injections to characterize the kinetics around the expected time of the peak concentration, 25 minutes from injection. Samples that could not be immediately centrifuged for extraction of plasma were stored on ice for at most one hour before centrifugation.
Plasma (nicotine, cotinine) and urinary nicotine and cotinine were measured using an HPLC ion exchange column assay, using an electrochemical detector for nicotine and a UV detector for other compounds. The sensitivity of the nicotine assay was <1 ng/ml and that of the cotinine was <5 ng/ml. Conjugates in urine were determined after hydrolysis with beta-glucuronidase.

In data set [8] the test system is nicotine to cotinine metabolism by K20 human liver microsomes.
Data set [9] shares this test system. The experiment in a line: Quinidine and coumarin inhibition of cotinine formation in K20 human liver microsomes.
The conditions of data set [10]: in vivo; cited from earlier work.
The next data set can be described thus: in vitro. The note with it: human, human liver microsomes. How it is done: The reaction was started by adding NADPH.
Ethyl acetate (3 mls) was added for extraction purposes.
Data Analysis. […] [formula]

The conditions of data set [11]: smokers infused with 2 μg/kg/min×30 minutes.
The target of data set [12] is T2, CYP2D6. Conditions: human liver microsomes, Wu, 1993; cited from earlier work.
The mark [13] stands for this setting: seven smokers, methoxsalen vs placebo.

The term Km denotes the substrate concentration at which the rate is half of its maximum. Broadly, the inhibition is the relative decrease from the control value, in per cent. Low values mean a weak effect, high ones a strong effect.

T2 sequence (P10635 whole entry): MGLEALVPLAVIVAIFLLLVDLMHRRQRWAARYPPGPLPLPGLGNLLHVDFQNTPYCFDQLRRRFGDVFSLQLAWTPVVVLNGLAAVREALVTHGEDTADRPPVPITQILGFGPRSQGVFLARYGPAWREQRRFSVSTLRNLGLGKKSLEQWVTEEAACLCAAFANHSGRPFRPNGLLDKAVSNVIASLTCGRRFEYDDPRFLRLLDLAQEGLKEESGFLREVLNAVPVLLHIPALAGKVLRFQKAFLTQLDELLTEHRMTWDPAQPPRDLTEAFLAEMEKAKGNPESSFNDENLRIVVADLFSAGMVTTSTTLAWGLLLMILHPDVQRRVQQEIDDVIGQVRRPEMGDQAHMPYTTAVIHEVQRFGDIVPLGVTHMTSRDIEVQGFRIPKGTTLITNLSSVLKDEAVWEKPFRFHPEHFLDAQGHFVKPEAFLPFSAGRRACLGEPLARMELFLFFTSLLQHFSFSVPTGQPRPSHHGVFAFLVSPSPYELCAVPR

On CYP2A6 [1], `CCN(CC)C(=S)S` [diethyldithiocarbamic acid] returned a Ki of 14.5 µM.

Take `CO[C@H]1C[C@H](O[C@H]2[C@H](C)[C@@H](O[C@@H]3O[C@H](C)C[C@H](N(C)C)[C@H]3OC(C)=O)[C@@H](C)C[C@@]3(CO3)C(=O)[C@H](C)[C@@H](OC(C)=O)[C@@H](C)[C@@H](C)OC(=O)[C@@H]2C)O[C@@H](C)[C@@H]1OC(C)=O` [troleandomycin]: the “mean inhibition of cotinine formation (mean±SD)” value in data set [2] is 3%.

In the case of `COc1ccc2c(c1)[C@]13CCCC[C@@H]1[C@H](C2)N(C)CC3` [dextromethorphan, Dextromethorphan hydrobromide], the Michaelis constant (Km) at 30 min on CYP2D6 [3] turned out to be 5.79 ± 2.01 µM.

In the case of “ASO#23: antisense oligodeoxynucleotide, CYP2A6 mRNA 333-353, exon 2 3 prime end: CCATAGCCTTTGAAGACCCAG (DNA, backbone and methylation of C not given here)”, the “CYP2A6 immunoreactivity, first test of 4 ASO” value with CYP2A6 [4] (5 μg ASO, Western blot) is on record as “effective at removing the CYP2A6 immunoreactivity”. Further, the “amount of CYP2A6, repeat with MSO controls” value with CYP2A6 [4] (relative to untreated control cells and MSO#23-treated cells) is on record as “effectively deceased the amount of CYP2A6”. In addition, the CYP2A6 protein entry in the data set with CYP2A6 [5] was “profound decreases in CYP2A6 protein”.

Turning to `COc1c2occc2cc2ccc(=O)oc12` [methoxsalen, 9-Methoxy-7H-furol[3,2-g][1]benzopyran-7-one], in data set [6], the half-life result is listed as “about 1 hour”. Also, at CYP2A6 [7] (plasma, seven subjects, FIG. 25), the “change in nicotine concentrations” value is on record as “large changes”. In addition, at CYP2A6 [7] (setting [13]), the “desire to smoke and urge to smoke” value is “significant decreased desire to smoke and urge to smoke”; the “expectation that a cigarette would be pleasant” value is given as “significant decrease”; the “subjective and physiologic effects accompanying increased plasma nicotine” value was “significant increase in nausea, anxiousness, difficulty concentrating, systolic blood pressure”.

`C=C[C@H]1C[N@@]2CC[C@H]1C[C@@H]2[C@@H](O)c1ccnc2ccc(OC)cc12` [quinidine]: in data set [8], the inhibition is ~20% and 25%. In addition, the “inhibition of cotinine formation” value in data set [9] (0.1 μM inhibitor) is “no inhibition”; in data set [9] (1.0 μM inhibitor) it was “no inhibition”; in data set [9] (10 μM inhibitor) it was 8%.

Turning to `O=C1C[C@@H](c2ccc(O)cc2)Oc2cc(O)cc(O)c21` [naringenin], on CYP2A6 [1], the Ki is 4.3 µM.

As for `Cc1ccccc1C(OCCN(C)C)c1ccccc1` (stereo not drawn) [orphenadrine], the estimated half-life result in [10] is on record as “about 14 h”.

As to `O=c1ccc2ccccc2o1` [coumarin], the “mean inhibition of cotinine formation (mean±SD)” value is “over 80%” in data set [2]; 84%±11% and 84±11% in data set [2] (listed as Coumarin). Besides, in data set [2], the “rank order of potency in inhibiting cotinine formation” value was “strongest inhibitory effect; also recorded: coumarin>7-methoxycoumarin>7-methylcoumarin>7-ethoxycoumarin”. Besides, in [2] (Cornish-Bowden plots), the “nature of inhibition of nicotine metabolism” value is on record as “competitive”. Further, the Ki in [2] (K27 human liver microsomes, n=3, Dixon plot, read-out: apparent Ki, inhibition of nicotine metabolism) is around 2 µM; in [2] (ex vivo in human liver microsomes, read-out: Ki, inhibition of NIC metabolism to COT) it was 1.5 µM.

For the compound `CN1CCC[C@H]1c1cccnc1` [nicotine, (S)-nicotine], the Michaelis constant (Km) at 45 min in “in vitro” (pH 7.4, apparent Km, formation of cotinine (mean±SD), 30 human liver microsomes) was determined as 66.7 ± 31.8 µM; in “in vitro” (pH 7.4, mean Km, nicotine to cotinine (mean±SD), 30 human livers), 66.6 ± 31.8 µM. For the same compound, the “urine concentration of NIC” value in data set [11] was above 80 ng/mL. The “inhibition of dextromethorphan metabolism by CYP2D6” value on CYP2D6 [12] was “did not inhibit”.

For the compound `Cc1ccc2ccc(=O)oc2c1` [7-methylcoumarin], in data set [2], the “rank order of potency in inhibiting cotinine formation” value is “coumarin>7-methoxycoumarin>7-methylcoumarin>7-ethoxycoumarin”.

On to `COc1ccc2ccc(=O)oc2c1` [7-methoxycoumarin], for which the “rank order of potency in inhibiting cotinine formation” value in [2] was “coumarin>7-methoxycoumarin>7-methylcoumarin>7-ethoxycoumarin”.

On to `CCOc1ccc2ccc(=O)oc2c1` [7-ethoxycoumarin], for which the “rank order of potency in inhibiting cotinine formation” value in data set [2] was “coumarin>7-methoxycoumarin>7-methylcoumarin>7-ethoxycoumarin”.
